According to US20250040548A1, “Herbicidal compositions comprising saflufenacil” (BASF SF, priority 2023, published 2025):

Tests used:
COMBE = experiment: Post-emergence application in greenhouse trials; type: in vivo, Commelina benghalensis; settings: growth stage 21, 1% MSO
Procedure: (§1) In the examples below, using the method of S. R. Colby (1967) “Calculating synergistic and antagonistic responses of herbicide combinations”, Weeds 15, p. 22ff., the value E, which is expected if the activity of the individual active compounds is only additive, was calculated.
(§2) [formula] • where • X=percent activity using active herbicide A at an application rate a; • Y=percent activity using active saflufenacil at an application rate b; • E=expected activity (in %) by A+B at application rates a+b.
(§3) If the value found experimentally is higher than the value E calculated according to Colby, a synergistic effect is present.
(§4) The culture containers used were plastic pots containing loamy sand with approximately 3.0% of humus as substrate. The seeds of the test plants were sown separately for each species.
(§5) For the post-emergence treatment, the test plants were grown to a plant height of from 3 to 15 cm, depending on the plant habit, and only then treated with the active compounds which had been suspended or emulsified in water. To this end, the test plants were either sown directly, and grown in the same containers, or they were first grown separately as seedlings and transplanted into the test containers a few days prior to treatment.
(§6) Depending on the species, the plants were kept at 10-25° C. and 20-35° C., respectively.
(§7) The test period extended over 2 to 4 weeks. During this time, the plants were tended and their response to the individual treatments was evaluated.
(§8) Evaluation was carried out using a scale from 0 to 100. 100 means no emergence of the plants, or complete destruction of at least the above-ground parts, and 0 means no damage or normal course of growth. A good herbicidal activity is given at values of at least 70, and very good herbicidal activity is given at values of at least 85.
(§9) Unless indicated otherwise, herbicide A and saflufenacil were formulated (50 g/I) and applied with addition of 1% MSO (methylated seed oil) as adjuvant. In the greenhouse trials, the solvent used was water (200 I/ha).

KCHSC = experiment: Post-emergence application in greenhouse trials; type: in vivo, Kochia scoparia; settings: growth stage 33, 1% MSO
Procedure: as §1, §2, §3, §4, §5, §6, §7, §8, §9

ALOMY = experiment: Post-emergence application in greenhouse trials; type: in vivo, Alopercurus myosuroides; settings: A-1 3.12 g ai/ha, 7 DAT, growth stage 21, saflufenacil as commercial 342 g/l SC formulation
Procedure: as §1, §2, §3, §4
(§10) For the post-emergence treatment, the test plants were grown to a plant height of from 3 to 15 cm, depending on the plant habit, and only then treated with the active compounds which had been suspended or emulsified in water. To this end, the test plants were either sown directly, and grown in the same containers, or they were first grown separately as seedlings and transplanted into the test containers a few days prior to treatment. […]
(§11) The test period extended over 2 to 4 weeks. During this time, the plants were tended and their response to the individual treatments was evaluated. […]

BRADC [1] = experiment: Post-emergence application in greenhouse trials; type: in vivo, Brachiaria decumbens; settings: growth stage 12, saflufenacil as commercial 342 g/l SC formulation
Procedure: as §1, §2, §3, §4, §5, §6, §7, §8, §9

ELEIN = experiment: Post-emergence application in greenhouse trials; type: in vivo, Eleusine indica; settings: A-1 3.12 g ai/ha, 21 DAT, growth stage 21, saflufenacil as commercial 342 g/l SC formulation
Procedure: as §1, §2, §3, §4, §10, §11

BIDPI = experiment: Post-emergence application in field trials (Examples 2 and 3); type: in vivo, Bidens pilosa; settings: A-1 25 g ai/ha, 21 DAT, growth stage 12-16, height 5-10 cm, 0.5% MSO
Procedure: as §1, §2, §3
(§12) On field test sites, natural weed infestation or seeded weeds were treated post-emergence of the weeds.
(§13) For the post emergence treatment, the weedy plants were treated as indicated below. The herbicidal compositions were, together with the adjuvant(s) as indicated, suspended or emulsified in water (200 l/ha unless indicated otherwise) as distribution medium and sprayed with commercial flat fan nozzles.
(§14) In the following experiments, the herbicidal activity for the individual herbicidal compositions (solo and mixture applications) was assessed the indicated days after treatment (DAT). The assessments for the damage on undesired weeds caused by the composition was carried out using a scale from 0 to 100%, compared to the untreated control plants. […]

BRADC [2] = experiment: as above; type: in vivo, Brachiaria decumbens; settings: growth stage 22-23, height 32-38 cm, 21 DAT, 1% Dash ® HC
Procedure: as §1, §2, §3, §12, §13
(§15) In the following experiments, the herbicidal activity for the individual herbicidal compositions (solo and mixture applications) was assessed the indicated days after treatment (DAT). The assessments for the damage on undesired weeds caused by the composition was carried out using a scale from 0 to 100%, compared to the untreated control plants. Here, 0 means no damage and 100 means complete destruction of the plants.
(§16) For the post emergence treatment, the weedy plants were treated as indicated below. The herbicidal compositions were, together with the adjuvant(s) as indicated, suspended or emulsified in water (200 I/ha unless indicated otherwise) as distribution medium and sprayed with commercial flat fan nozzles.

CYPES = experiment: as above; type: in vivo, Cyperus esculentus; settings: A-1 12.5 g ai/ha, 21 DAT, height 15-23 cm, 140 l/ha water, 1% MSO + 2.5% ammoniumsulfate
Procedure: as §1, §2, §3, §12, §13, §14

DIGSA = experiment: as above; type: in vivo, Digitaria sanguinales; settings: A-1 12.5 g ai/ha
Procedure: as §1, §2, §3, §12, §13, §15, §16

DIGIN = experiment: as above; type: in vivo, Digitaria insularis
Procedure: as §1, §2, §3, §12, §13, §15, §16

ERISS = experiment: as above; type: in vivo, Erigeron sp.; settings: 14 DAT, height 30-50 cm, 0.5% v/v MSO
Procedure: as §1, §2, §3, §12, §13, §15, §16

[3] = system: HORVS* (non-PPOi herbicide tolerant); experiment: as above; type: in vivo, Hordeum vulgare; settings: 1% v/v MSO
Procedure: as §1, §2, §3, §12, §13, §15, §16

LAMAN = experiment: as above; type: in vivo, Lamium amplexicaule; settings: height 3-18 cm, A-1 solo 25 g ai/ha, 21 DAT, 1% v/v MSO and 1% AMS (ammonium sulfate)
Procedure: as §1, §2, §3, §12, §13, §14

LOLRI = experiment: as above; type: in vivo, Lolium rigidum; settings: growth stage 12-22, A-1 solo 25 g ai/ha, 14 DAT, 1% v/ MSO
Procedure: as §1, §2, §3, §12, §13, §14

[4] = system: ZEAMX* (non-PPOi herbicide tolerant); experiment: as above; type: in vivo, Zea mays; settings: 21 DAT
Procedure: as §1, §2, §3, §12, §13, §15, §16

## CCOC(=O)COc1ccccc1Oc1nc(-n2c(=O)cc(C(F)(F)F)n(C)c2=O)c(F)cc1Cl [A-1, ethyl 2-[2-[[3-chloro-5-fluoro-6-[3-methyl-2,6-dioxo-4-(trifluoromethyl)pyrimidin-1-yl]-2-pyridyl]oxy]phenoxy]acetate]
COMBE; A-1 0.2 g ai/ha, 6 DAT
  % Herbicidal activity: 15%
COMBE; A-1 0.2 g ai/ha, 20 DAT
  % Herbicidal activity: 40%
COMBE; A-1 0.4 g ai/ha, 20 DAT
  % Herbicidal activity: 75%
KCHSC; A-1 0.2 g ai/ha, 6 DAT
  % Herbicidal activity: 15%
KCHSC; A-1 0.2 g ai/ha, 20 DAT
  % Herbicidal activity: 15%
KCHSC; A-1 0.3 g ai/ha, 6 DAT
  % Herbicidal activity: 55%
KCHSC; A-1 0.4 g ai/ha, 6 DAT
  % Herbicidal activity: 55%
KCHSC; A-1 0.4 g ai/ha, 20 DAT
  % Herbicidal activity: 55%
KCHSC; A-1 0.9 g ai/ha, 6 DAT
  % Herbicidal activity: 90%
KCHSC; A-1 1 g ai/ha, 6 DAT
  % Herbicidal activity: 95%
ALOMY
  % Herbicidal activity: 70%
BRADC [1]; A-1 1.56 g ai/ha, 21 DAT
  % Herbicidal activity: 75%
BRADC [1]; A-1 3.12 g ai/ha, 7 DAT
  % Herbicidal activity: 85%
BRADC [1]; A-1 3.12 g ai/ha, 21 DAT
  % Herbicidal activity: 85%
ELEIN
  % Herbicidal activity: 80%
BIDPI
  % Herbicidal activity: 94%
BRADC [2]; A-1 solo 30 g ai/ha
  % Herbicidal activity: 75%
BRADC [2]; A-1 solo 50 g ai/ha
  % Herbicidal activity: 88%
CYPES
  % Herbicidal activity: 47%
DIGSA; 19 DAT, growth stage 13-19, height 2.5-7.5 cm, 1% v/v MSO and 1% w/v ammoniumsulfate
  % Herbicidal activity: 87%
DIGSA; 21 DAT, height 3-12 cm, 140 l/ha water, 1% MSO + 2.5% ammoniumsulfate
  % Herbicidal activity: 50%
DIGIN; A-1 50 g ai/ha, 7 DAT, height 60-80 cm, field, 0.5% v/v MSO
  % Herbicidal activity: 70%
DIGIN; DIGIN, growth stage 65, height 40-50 cm, A-1 solo 30 g ai/ha, 21 DAT, 1% v/v MSO
  % Herbicidal activity: 53%
ERISS; A-1 25 g ai/ha
  % Herbicidal activity: 13%
ERISS; A-1 50 g ai/ha
  % Herbicidal activity: 18%
[3]; A-1 18 g ai/ha, 29 DAT, growth stage 15-24, height 25-45 cm, field, 100 l/ha water
  % Herbicidal activity: 73%
[3]; HORVS* (non-PPOi herbicide tolerant), growth stage 15, height 31-43 cm, A-1 solo 12.5 g ai/ha, 16 DAT
  % Herbicidal activity: 72%
[3]; HORVS* (non-PPOi herbicide tolerant), growth stage 15, height 31-43 cm, A-1 solo 50 g ai/ha, 16 DAT
  % Herbicidal activity: 96%
LAMAN
  % Herbicidal activity: 93%
LOLRI
  % Herbicidal activity: 85%
[4]; A-1 12.5 g ai/ha, growth stage 15, 1% v/v MSO and 1% w/v ammoniumsulfate
  % Herbicidal activity: 40%
[4]; A-1 25 g ai/ha, growth stage 15, 1% v/v MSO and 1% w/v ammoniumsulfate
  % Herbicidal activity: 83%
[4]; A-1 50 g ai/ha, growth stage 18, 0.5% MSO
  % Herbicidal activity: 92%
